In data set [1] the test system is SGC7901: a human gastric cancer line. Put plainly: MTT analytical method, SGC7901 cells. The data set is classed as cell-based. The conditions noted are these: SGC-7901, 72 h. An excerpt:
(§1) MTT analytical method was used to test the prodrugs for various tumor cells.
(§2) • 1) Cell lines: NCI-H460, A549, LOVO, HT-29, MDA-MB-231, SGC7901, HepG2 or BEL-7402 cell lines. Culture: adherent culturing in D-MEM (Hyclone, Inc.) containing 10% fetal calf serum. The initial cell concentration was about 3×10^5 /mL. The cell was passaged by 1:3 dilution in every 2-3 days. On the day before the test, the cell was passaged by 1:2 dilution, the cell concentration for the test was 5-10×10^5 /mL. • 2) Dissolution and dilution of compounds: according to the weight and molecular weight of the drugs provided, 100-200 μL of DMSO was added. Then normal saline was added to make the final diluted concentration of the drugs be 5 mM (Note that the final concentration of DMSO should not be more than 10%). • 3) D-MEM or RPMI 1640 cell culture medium, Gibco, Inc. • 4) Fetal calf serum Hyclone, Inc. • 5) Cell dissociation buffer, 0.25% Trypsin+0.02% EDTA. • 6) MTT solution, MTT Powder (Sigma) were dissolved in PBS buffer solution to make a solution of 5 mg/mL. The solution was filtered by a 0.22 μm micropore membrane and stored at −20° C. • 7) PBS buffer solution. • 8) 10% acidified SDS, 0.01N HCl. • 9) Centrifuge tubes, haustorial tubes etc. (BD, Inc.); 96-well plates (Costatr, Inc.) Procedures: • 1) Cell inoculation: Cells grown for 24 hours after passage, which cells were in good growth state, were used. The cells were harvested by the routine method. The cell concentration was adjust with a fresh culture solution to 2×10^5/mL (for adherent cells)-3×10^5/mL (for suspension cells). The adherent cells were inoculated at 100 μL/well and then cultivated in an incubator with 5% CO2 at 37° C. for 24 h. Thereafter the used culture solution was removed and 95 μL/well of fresh culture solution was added. The suspension cells were inoculated at 95 μL/well directly. • 2) Drugs treatment: 9 concentration grades were designed for every drug, and every concentration had 3 wells. The control group had 5 wells. The control group was tested simultaneously in each test. The final concentrations of a drug added were […], and 5 μL normal saline was added to the control group. • 3) Cell culture and detection: the cells were cultured in an incubator with 5% CO2 at 37° C. for 72 h after the drug was added, then 10 μL MTT was added to each well and the culture was continued for 4 h. 100 μL of 10% SDS (containing 0.01N HCl) was added to each well. After 24 h, the absorbance (A) of each well was determined by Bio-rad 680 ELISA with the detection wavelength of 570 nm and the reference wavelength of 630 nm. Calculation:
(§3) First, the absorbance (A) of each well was averaged (removing any data with big difference). […] A0 was the mean absorbance of the control wells. The effect curve of the drug concentration was drawn using EXCEL software and the drug concentration for 50% cell survival was calculated according to an appropriate computing methods.

In data set [2] the test system is HT29 tumor transplanted in nude mice. Put plainly: HT29 tumor transplanted in nude mice, intravenous administration. The settings on record: for weight loss rate: 20 mg/kg i.v., d17, HT29 nude mice; for toxicity judged by body weight loss, in words: mouse, in vivo, iv; for inhibitory rate (relative tumor volume) at the end of the experiments: HT29. Here is the method:
(§4) 1. […] The drugs were packaged and stored at −20° C.
(§5) The treatment starting day was the first day (d0). […] The tumor tissues were removed and weighed. The inhibition rate of tumor growth was calculated.

For data set [3], the system named is MDA-MB-231: a human breast cancer line. In words: MTT analytical method, MDA-MB-231 cells. Type of data set: cell-based. The settings on record: MDA-MB-231, MTT, 72 h.
Source text: as §1, §2, §3

Data set [4] has as its system HepG2: a human liver cancer cell line. In words: MTT analytical method, HepG2 cells. The data set is classed as cell-based. The conditions noted are these: 72 h.
Source text: as §1, §2, §3

In data set [5] the test system is HepG2 tumor transplanted in nude mice. Put plainly: HepG2 tumor transplanted in nude mice, intravenous administration. Type of data set: in vivo, BALB/C nude mice. The conditions noted are these: for weight loss rate: HepG2 nude mice; for effect on growth of HepG2 tumor (growth curve and tumor weight), in words: i.v., SL-01 10, 20, 40 mg/kg, Gem group. Here is the method:
as §4, §5
4.2 The low, middle and high dosage of SL-01 in the treatment for HepG2 liver cancer cell line tumor growth transplanted in nude mice are 10, 20 and 40 mg/kg, respectively.

Data set [6] has as its system Bel7402: a human liver cancer cell line. Put plainly: MTT analytical method, Bel7402 cells. The conditions noted are these: Bel-7402, 72 h. Type of data set: cell-based.
Data set [7] relates to NCI-H460 tumor transplanted in nude mice. In words: NCI-H460 tumor transplanted in nude mice, intravenous administration. The settings on record: for weight loss rate: NCI-H460 nude mice; for effect on NCI-H460 tumor (growth curve and tumor weight), in words: i.v. every three days x4, SL-01 5, 10, 20 mg/Kg, GEM 10 mg/Kg.
Method: The highest concentrations of both were 10 mg/mL and 240 mg/mL, respectively. […] Assuming that each mouse weighed 20 g and 0.1 mL of drug solution was administered, then the dosage of SL-01 at 5, 10 or 20 mg/kg needed drug concentrations of 1, 2, 4 mg/mL, respectively.
Cell lines and cultivation: the NCI-H460 lung cancer cell line, the HepG2 liver cancer cell line, or the HT29 colon cancer cell line were cultured by adherent culturing in D-MEM (Gibco, Inc.) containing 10% fetal calf serum. These cells were passaged once by a dilution of 1:3 in every 2-3 days. The cells were collected when they were passaged to grow into 25 of 10 cm culture dishes.
3.1 The establishment of a model of transplanted tumors in nude mice: Well-grown NCI-H460 cells, HT29 cells or HepG2 cells were collected (25 of 10 cm culture dishes). The cell concentration was adjusted to 1.5×10^7/mL with serum-free DMEM. 200 μL cell suspension was inoculated into the right back of 6 weeks old male BALB/C nude mice by subcutaneous injection using a 1 mL syringe.
The treatment starting day was the first day (d0). The corresponding drugs were injected intravenously to the tail vein every three days. The administration volume to each mouse was adjusted according to its body weight. A total of four administrations (d0, d3, d6, d9) were applied. The long and short tumor pathlines were measured with a slide caliper at the beginning of the administration and every 3 days thereafter. The tumor volume V was calculated (V=½ab^2, a is the tumor long pathline, b is the tumor short pathline). The growth curve was drawn with the time as the horizontal axis, and tumor volume as the vertical axis. The experiment was terminated when the tumor size of the control group reached 3000 mm^3. Blood samples were taken from the eyeball and thereafter the nude mice were euthanized by back neck vertebra cervical dislocation. The tumor tissues were removed and weighed. The inhibition rate of tumor growth was calculated.
The subject of data set [8] is NCI-H460: a human lung cancer cell line. Put plainly: MTT analytical method, NCI-H460 cells. The data set is classed as cell-based. The conditions noted are these: 72 h.
Source text: as §1, §2, §3

The test system of data set [9] is HT29: a human colon cancer cell line. In words: MTT analytical method, HT29 cells. Type of data set: cell-based. The conditions noted are these: HT-29, 72 h.
Data set [10] in a line: Physiological stability in PBS (pH=7.4) (HPLC). The data set is classed as physicochemical. The conditions noted are these: for stability in PBS (pH=7.4) (in words): 0-24 h; for HPLC peak area of drug: PBS (pH = 7.4).

For the compound `Nc1ccn([C@@H]2O[C@H](CO)[C@@H](O)C2(F)F)c(=O)n1` [Gemcitabine, gemcitabine, reference compound], the 50% inhibitory concentration (IC50) in [1] was greater than 16 µM; in data set [3] it was less than 1 µM; in data set [4] it was less than 1 µM; in data set [6], 4 µM; in data set [8], less than 1 µM; in data set [9], 7 µM. Besides, the weight loss rate in data set [2] is 4%; in [5] (gemcitabine positive control), 9%; in data set [7] (gemcitabine positive control 10 mg/Kg i.v.), 14%. For the same compound, the “toxicity judged by body weight loss, in words” value in data set [2] is “neither the gemcitabine positive control group nor SL-01 has obvious toxicity”. Also, the “effect on growth of HepG2 tumor (growth curve and tumor weight), in words” value in data set [5] is on record as “neither SL-01 nor gemcitabine has shown an obvious inhibitory effect”. Besides, in [7], the “effect on NCI-H460 tumor (growth curve and tumor weight), in words” value is “inhibitory effect”. Besides, in data set [10], the “stability in PBS (pH=7.4) (in words)” value is on record as “stable”. Besides, the “HPLC peak area of drug” value worked out at 657583.875 in data set [10] (0 min); 646932.375 in data set [10] (1 h); 651326.375 in data set [10] (2 h); 647537.813 in [10] (4 h); 618724 in [10] (6 h); 635026.875 in [10] (8 h). Moreover, the figures for the “HPLC peak area of drug” value in data set [10] (12 h) and in data set [10] (24 h) were 600425.125 and 603669.813, respectively.

As to `CCCCCCCCCCCCOC(=O)c1nccnc1C(=O)Nc1ccn([C@@H]2O[C@H](CO)[C@@H](O)C2(F)F)c(=O)n1` [Compound 4, Dodecyl-3-((1-((2R,4R,5R)-3,3-difluoro-4-hydroxy-5-(hydroxymethyl)-tetrahydrofuran-2-yl)-2-oxo-1,2-dihydropyrimidin-4-yl)carbamoyl)pyrazine-2-carboxylate], the IC50 in data set [1] is greater than 16 µM; in data set [3], greater than 16 µM; in data set [4], 6 µM; in [6] it was 8 µM; in [8], less than 2 µM; in data set [9] it was 2 µM. The “inhibitory rate (relative tumor volume) at the end of the experiments” value in data set [2] (20 mg/kg i.v. (Gem group; SL01 middle dosage group)) was found to be 23%; in data set [2] (SL01 high dosage group 40 mg/kg i.v.), 7%. For the same compound, the weight loss rate in data set [2] is 8%; in data set [5] (SL-01 high dosage 40 mg/kg i.v.) it was 3.5%; in [5] (SL-01 low dosage 10 mg/kg i.v.), 11.6%; in data set [5] (SL-01 middle dosage 20 mg/kg i.v.) it was 14%; in data set [7] (SL-01 high dose group 20 mg/Kg i.v.), 7%. The “toxicity judged by body weight loss, in words” value in data set [2] was “neither the gemcitabine positive control group nor SL-01 has obvious toxicity”. In addition, the “effect on growth of HepG2 tumor (growth curve and tumor weight), in words” value in data set [5] is given as “neither SL-01 nor gemcitabine has shown an obvious inhibitory effect”. Further, in [7], the “effect on NCI-H460 tumor (growth curve and tumor weight), in words” value is reported as “inhibitory effect”. The “stability in PBS (pH=7.4) (in words)” value in [10] is “stable”. The “HPLC peak area of drug” value in data set [10] (0 min) is 399795.688; in data set [10] (1 h), 379856.688; in data set [10] (2 h), 397725; in data set [10] (4 h), 373725.406; in [10] (6 h), 360109.813; in data set [10] (8 h), 362068.688. Also, the figures for the “HPLC peak area of drug” value in [10] (12 h) and in data set [10] (24 h) were 386125.688 and 387541.688, respectively.

The record behind these values is patent publication US8653048B2 (Sanlugen Pharmatech Ltd., priority 2009, dated 2014).
